Experimental data taken from patent publication US8455495B2, “Pyridazino-pyridinone compounds and methods of use” (Amgen Inc., priority 2008, dated 2013).

Key:
[1] = biological target: recombinant human p38α (Homo sapiens, UniProt Q16539); assay: Purified and activated recombinant human p38α HTRF assay; type: biochemical; conditions: 1 nM p38α, 50 μM ATP, GST-ATF2 substrate, read-out: p38a IC50
[2] = tested on: collagen-induced arthritis; assay: Collagen-induced arthritis (CIA) model in rats; type: in vivo; conditions: Rattus norvegicus, 168 h; rats, treated for 7 days from onset of arthritis; read-out: ED50 in rat CIA model
Description: Collagen-induced Arthritis (CIA) Model in Rats
Porcine type II collagen (10 mg) was dissolved in 0.1N acetic acid (5 mL) two days prior to use on a rotating plate in the refrigerator. Subsequently, collagen was emulsified 1:1 with Freund's incomplete adjuvant using an emulsification needle and glass syringes yielding a final concentration of 1 mg/mL.
Disease was induced in each animal by intradermal injection of emulsified collagen in IFA at 10 different sites (100 μL per site) over the back. The clinical onset of arthritis varied between days 10 to 12 as indicated by hind paw swelling and ambulatory difficulties. At onset (defined as Day 0), rats were randomized to treatment groups and therapy was initiated with drug or vehicle control as noted in table above. Rats were treated for 7 days and were sacrificed on Day 8.

[3] = tested on: LPS-induced TNF-α production; assay: Inhibition of LPS-induced TNF-α production in rats; type: in vivo; conditions: Rattus norvegicus; rats, compound PO 60 minutes prior to LPS IV; plasma TNF-α 90 minutes after LPS; read-out: ED50, inhibition of LPS-induced TNF-α production
Description: Inhibition of LPS-Induced TNF-α Production Rats
LPS was diluted in PBS (100 μg per rat). Rats (n=6) were pretreated with vehicle or compound (0.03, 0.1, 0.3 and 1.0 mg/kg, PO) 60 minutes prior to the injection of LPS (100 μg per rat/IV, tail vein). Blood was harvested via decapitation 90 minutes following the administration of LPS. Blood was centrifuged at 12,000 rpm for 12 minutes to obtain plasma. Plasma samples were stored at −80 C. TNF-α levels were determined by ELISA for treatment groups that received LPS. Rat TNF-α levels were analyzed using rat TNF-α CytoSet kit from Biosource International. ELISA was completed according to the manufacturer's instructions. The concentration of TNF-α was interpolated from absorbance using the standard curve generated. For each individual sample, the TNF value from the dilution series that fell in the most linear portion of the standard curve was chosen and used for data analysis. The limit of quantitation of the ELISA was 1,000 pg/mL.

[4] = tested on: TNF-α production by LPS-activated THP1 cells; assay: Lipopolysaccharide-activated THP1 cell TNF production assay; type: cell-based; conditions: Homo sapiens, THP-1; THP1 cells, LPS, 3 hours; read-out: IC50 in THP-1 cellular TNF production assay
[5] = tested on: production of IL-1β, IL-6, and TNF-α by PBMC activated with LPS; assay: Lipopolysaccharide-activated PBMC cytokine production assay; type: cell-based; conditions: Homo sapiens, LPS 100 ng/mL, 18 hours, read-out: IC50 in PBMC cytokine production assay

Chain of recombinant human p38α (Q16539 whole entry): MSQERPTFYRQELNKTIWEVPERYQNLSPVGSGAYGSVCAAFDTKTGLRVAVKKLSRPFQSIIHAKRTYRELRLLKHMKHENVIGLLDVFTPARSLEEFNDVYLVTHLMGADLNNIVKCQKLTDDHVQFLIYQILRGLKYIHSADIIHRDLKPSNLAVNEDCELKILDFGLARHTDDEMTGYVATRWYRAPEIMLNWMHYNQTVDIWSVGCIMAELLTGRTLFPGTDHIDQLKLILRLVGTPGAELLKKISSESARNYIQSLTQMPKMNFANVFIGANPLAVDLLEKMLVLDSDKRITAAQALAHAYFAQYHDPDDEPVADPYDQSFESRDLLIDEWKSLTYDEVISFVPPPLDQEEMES

With `Cc1c(F)cc(C(=O)NC2CC2)cc1-c1cc2cnnc(-c3ccccc3Cl)c2n(C)c1=O` [Example 14, 3-(8-(2-chlorophenyl)-1-methyl-2-oxo-1,2-dihydropyrido[2,3-d]pyridazin-3-yl)-N-cyclopropyl-5-fluoro-4-methylbenzamide] the IC50 [1] was 0.0024 µM, the ED50 [2] was 0.03 mg/kg and the ED50 [3] was 0.02 mg/kg. It also gave an IC50 [4] of at most 1 µM and an IC50 [5] of at most 1 µM.
